According to US20250090626A1, “NEW PEPTIDE AND USES THEREOF” (Neo Cremar Co., Ltd., priority 2021, published 2025):
No end group written: not given here.

What was measured:
Format in all cases: cell-based, mouse
3T3L1 cells [1] = assay: Adipodifferentiation of 3T3L1 cells, Oil red O staining; conditions: 3T3L1, adipocyte-induced differentiation medium with Ac-MIF1, 4 days; FIG. 13B
Method: For differentiation of 3T3L1 cells into adipocytes, when the cells grew about 100% or more, they were replaced with differentiation medium (DMEM+10% FBS+1% P/S+10 ug/ml insulin+1 μM dexametazone+0.5 μM IBMX (3-isobutyl-1-methylxanthine)) and cultured for 2 days. After 2 days, MIF was treated in a medium including 10 ug/ml insulin to induce cell differentiation.
3T3L1 cells were treated with peptides and differentiated for 4 days, then the medium was removed, and the cells were washed with normal saline, treated with 10% formaldehyde, and left for 10 minutes. After 10 minutes, Oil-red O staining agents (6 ([…] Oil-red O reagent+1 ml 100% isopropanol):4 (distilled water)) were treated and left for 1 hour. After 1 hour, cells were washed with normal saline and then observed under a microscope. To measure the Oil-red O stained in the intracellularly differentiated cells, 100% isopropanol was added and collected, followed by measurement at 510 nm.

3T3L1 cells [2] = assay: Expression of FMOD, MSTN and lipogenesis-related mRNAs and proteins in 3T3L1 cells; conditions: 3T3L1, Ac-MIF1 treated vs untreated; FIG. 13C
Method: After adding 1 ml of TRIzol™ reagent, the cells were crushed using a sonicator. After centrifugation of the crushed sample (12,000 rpm, 10 min, 4° C.), the supernatant was transferred to a new tube, added with 200 μl of chloroform, and left at room temperature for 10 minutes. After 10 minutes, centrifugation (12,000 rpm, 10 min, 4° C.) was performed, yielded a transparent supernatant. Next, 500 μl of isopropanol was added, the mixture was left for 10 minutes, and centrifugation was performed to obtain RNA pellets. After washing by adding 70% ethanol (distilled water treated with ethanol+diethylpyrocarbonate (hereinafter referred to as DEPC)) to the RNA pellets, complete removal and drying were followed. The dried transparent RNA was added with DEPC-treated distilled water and then stored at −80° C. Total RNA volume was measured by nanodrop, and the 18s and 28s bands were detected in 1.2% agarose gel. cDNA was synthesized with 2 μg of total RNA, random hexamer primers, and reverse transcriptase (25° C.: 10 min, 37° C.: 120 min, 85° C.: 5 min).
Real-time PCR (RT-PCR) was performed for detecting gene expression. For observation of real-time gene expression, gene expression was analyzed using the Power SYBR Green PCR Master Mix, which includes fluorescent materials of SYBR green (7500 Real-time PCR system). The PCR primer was designed with Primer 3 software (http://frodo.wi.mit.edu) according to the nucleotide sequence secured from NCBI GenBank. PCR was performed 40 times at 95° C. for 10 minutes, again at 95° C. for 33 seconds, at gene primer temperature (tm) for 33 seconds, and at 72° C. for 33 seconds. Gene expression values were analyzed through the analysis of c(t) values obtained through real-time PCR analysis (fold change 2-^ΔΔCt formula). Setting the gene expression value of the untreated cells to 1, the gene expression value of the treated cells was calculated. In the analysis of gene c(t) values, normalization was conducted with the glyceraldehyde-3-phosphate dehydrogenase (GAPDH).
(2) The medium of cultured 3T3L1 cells was removed and washed with PBS. After adding LIPA buffer and protease inhibitor to the washed cells, the proteins included in the supernatant were collected after centrifugation at 12000 rpm for 10 minutes. 40 μg of the extracted proteins were subjected to electrophoresis in 8 to 10% acrylamide gel and then transferred to a polyvinylidene fluoride (PVDF) membrane (Milipore). These were blocked with 3% skim milk or bovine serum albumin (BSA) at room temperature for 1 hour. Afterwards, primary antibody diluted in 1% skim milk or BSA (MSTN; 1:1000, 13-actin; 1:1000, CD36; 1:500, CD163; 1:500, FMOD; 1:400, and PPARγ; 1:500) was added and reacted at 4° C. for over 16 hours. After 16 hours, they were washed three times with TBST (Tris-buffered saline with Tween 20) and reacted with secondary antibody conjugated with horseradish peroxidase (HRP) at room temperature for 1 hour. It was washed three times with TBST and developed after adding Super Signal West Pico Chemiluminescent Substrate.

C2C12 cells [3] = assay: C2C12 cell proliferation (MTT method); conditions: C2C12, peptide 1000 nM, 1 day, MTT; FIG. 4
Method: C2C12 cells, a mouse myoblast line, were cultured in Dulbecco's Modified Eagle's Medium (DMEM)+10% fetal bovine serum (FBS)+1% penicillin/streptomycin (P/S). To validate the effect of MIF peptide, C2C12 cells (2×10^3 cells/ml) were placed in a 12 well cell culture dish and attached for 24 hours, and MIF peptide (1000 nM) was treated for 1 day to observe cell proliferation by MTT method. The medium was replaced every 2 days, and the cells were cultured at 37° C.
(§1) To validate cell proliferation, the culture medium of the cells was removed, the cells were washed with DMEM, 500 μl of MTT reagent (0.5 mg/ml) dissolved in phosphate buffered saline (PBS) was added to each well, and the cells were left at 37° C. for 1 hour. The reaction solution was removed, and 1000 μl of DMSO was added to each well. Purple formazan crystals were completely dissolved in DMSO, and the absorbance was measured at 540 nm.

3T3L1 cells [4] = assay: 3T3L1 cell proliferation (MTT method); conditions: 3T3L1, Ac-MIF1 1000 nM, 2 days, FIG. 13A
Method: 3T3L1 cells, mouse fibroblasts, were cultured in Dulbecco's Modified Eagle's Medium (DMEM)+10% fetal bovine serum (FBS)+1% penicillin/streptomycin (P/S). To validate the effect of MIF peptide, 3T3L1 cells (2×10^3 cells/ml) were placed in a 12-well cell culture dish, attached for 24 hours, and treated with MIF peptide (1000 nM) for 2 days, followed by observation of cell proliferation by MTT method. The medium was replaced every 2 days, and the cells were cultured at 37° C.
as §1

C2C12 cells [5] = assay: Scratch experiment, degree of cell recovery; conditions: C2C12, 1000 nM peptide, 1 day in proliferation medium
Method: When the C2C12 cells were 100% grown, cells were scratches on the surface, treated with 1000 nM MIF1 or Ac-MIF1 peptides, and cultured for 1 day, followed by observation for a degree of cell recovery.

Ac-VDFEAFWDWG [Ac-MIF1, MIF1 with N-terminus acetylated, 10 mer]
fat accumulation (Oil-red O intensity), decrease compared to cells without peptide treatment (3T3L1 cells [1]): 8%
CD36 expression (mRNA and protein) (3T3L1 cells [2]): decreased
CD163 expression (mRNA and protein) (3T3L1 cells [2]): decreased
FMOD expression (mRNA and protein) (3T3L1 cells [2]): decreased
MSTN expression (mRNA and protein) (3T3L1 cells [2]): decreased
PPARγ expression (mRNA and protein) (3T3L1 cells [2]): decreased
cell proliferation, increase compared to cells without peptide treatment (C2C12 cells [3]): 24%
proliferation of 3T3L1 cells, decrease compared to cells without peptide treatment (3T3L1 cells [4]): 8%
scratch recovery degree, increase compared to untreated cells (C2C12 cells [5]): 28%
